Here are results for 1 compound from patent publication US7345083B2, “Hydroisoindoline tachykinin receptor antagonists” (Merck & Co., Inc., priority 2004, dated 2008).

In general, melting point refers to the temperature of the solid-liquid transition.

Each structure is given as a SMILES string.

In turn, `C[C@@H](O[C@H]1CC[C@@H]2CN(C3=CC(=O)CC3)C[C@H]2[C@@H]1c1ccc(F)cc1)c1cc(C(F)(F)F)cc(C(F)(F)F)c1` [Example 7, 3-[(3aR,4R,5S,7aS)-5-{(1R)-1-[3,5-bis(Trifluoromethyl)phenyl]ethoxy}-4-(4-fluorophenyl)-octahydro-2H-isoindol-2-yl]cyclopent-2-en-1-one] had a melting point of 216.5 to 217.5 °C.
